From patent US20230167058A1, “GPX4 COMPOUNDS AND COMPOSITIONS AND METHODS OF TREATMENT USING SAME” (THE TRUSTEES OF COLUMBIA UNIVERSITY IN THE CITY OF NEW YORK, priority 2020, published 2023)

Legend:
[1] = target: T1, cellular GPX4 in HT1080 cell lysate (Homo sapiens, UniProt P36969); assay: NADPH-coupled cellular GPX4-specific activity, HT1080 cell lysate; format: biochemical; conditions: 500 μM LOC1886 added to lysate
T1 construct: endogenous in cells; host or cells: HT-1080 (ATCC), whole-cell lysate
T1 sequence (P36969 1-197): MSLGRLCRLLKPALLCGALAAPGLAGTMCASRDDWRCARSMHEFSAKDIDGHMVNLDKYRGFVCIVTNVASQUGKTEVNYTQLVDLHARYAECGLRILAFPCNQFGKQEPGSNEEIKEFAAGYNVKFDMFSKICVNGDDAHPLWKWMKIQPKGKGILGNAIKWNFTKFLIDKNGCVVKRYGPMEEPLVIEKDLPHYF
Protocol: We applied a NADPH-coupled cellular GPX4 enzymatic activity assay as previously reported with minor modifications (Roveri et al. 1994). Oxidized glutathione, generated by GPX4 during reducing its specific phospholipid hydroperoxides substrate, was reduced by Glutathione Reductase at the expense of NADPH, the decrease in the characteristic absorbance of which at 340 nm was monitored and quantified as GPX4 activity. […] The concentration of protein in the lysate was determined using BCA assay kit using BSA as standards. […] Absorbance of NADPH at 340 nm was determined kinetically at 1 min interval over the 20 min time. […] Results were quantified using GraphPad Prism 9.
We applied a NADPH-coupled cellular GPX4 enzymatic activity assay as previously reported (Roveri et al. 1994). Oxidized glutathione, generated by GPX4 during reducing its specific phospholipid hydroperoxides substrate, was reduced by Glutathione Reductase at the expense of NADPH, the decrease in the characteristic absorbance of which at 340 nm was monitored and quantified as GPX4 activity. […] The concentration of protein in the lysate was determined using BCA assay kit using BSA as standards. […]

Aqueous solubility = format: physicochemical
[2] = test system: allCys(−) A66C GPX4 in G401 cells; assay: Western blot GPX4 degradation study in G401; format: cell-based; conditions: 2 or 4 μM RSL3, 10 h, 10 μM Fer-1
Protocol: For the GPX4 degradation study, G-401 cells were seeded at 800,000 per well in a 60-mm plate and allowed to adhere overnight. Cells were then treated with 10 μM Fer-1 and 0 (vehicle), 2 or 4 μM RSL3 for 10 h. Cells were harvested with trypsin (Invitrogen, 25200-114), pelleted, and lysed with RIPA buffer.
For the quantification of GPX4 protein level for cellular viability and GPX4-specific activity assay, each cell line subject to the cellular viability and GPX4-specific activity was tested by Western Blot in technical duplicates. In particular, cells were harvested with trypsin (Invitrogen, 25200-114), pelleted, and lysed by LCW lysis buffer (0.5% TritonX-100, 0.5% sodium deoxycholate salt, 150 mM NaCl, 20 mM Tris-HCl pH 7.5, 10 mM EDTA, 30 mM Na-pyrophosphate, and cOmplete protease inhibitor cocktail). While part of the cell lysates was blotted for protein quantification, the other part of lysates was used for the GPX4-specific activity assay. For both experiments, cell lysates were blotted and imaged as previously described (Yang et al. 2014). Antibodies used were GPX4 (Abcam, ab125066, 1:250 dilution) and actin (Cell Signaling, D18C11, 1:3,000 dilution). Results were quantified using a LI-COR Odyssey CLx IR scanner, ImageJ, and GraphPad Prism 9.

With `COc1cccc2[nH]c(C(=O)n3ccnc3)cc12` [LOC1886] the “capability of cellular GPX4 to reduce phospholipid hydroperoxides” value [1] was “inhibited the capability of cellular GPX4”.
In the case of `COC(=O)c1ccc([C@@H]2c3[nH]c4ccccc4c3C[C@@H](C(=O)OC)N2C(=O)CCl)cc1` [RSL3, (1S, 3R)-RSL3], the “solubility in aqueous solution” value (Aqueous solubility) was “low” and the “RSL3-induced degradation of allCys(−) A66C GPX4” value [2] was “does-dependent degradation of allCys(−) A66C GPX4”.
